Results reported in patent US12384776B2, “Compounds and uses thereof” (Foghorn Therapeutics Inc., priority 2019, dated 2025).

Biological target: Nanoluciferase-BRD9 fusion protein (3×FLAG-NLuc-BRD9) in SYO-1 cells (Homo sapiens (Human), UniProt Q9H8M2)
Experiment: SYO1 BRD9 NanoLuc degradation assay
Type: cell-based
Settings: SYO-1 cells expressing 3×FLAG-NLuc-BRD9, 6 hours incubation, top dose 1 μM
Description: Procedure: A stable SYO-1 cell line expressing 3×FLAG-NLuc-BRD9 was generated. On day 0 cells were seeded in 30 μL media into each well of 384-well cell culture plates. The seeding density was 8000 cells/well. On day 1, cells were treated with 30 nL DMSO or 30 nL of 3-fold serially DMSO-diluted compounds (10 points in duplicates with 1 μM as final top dose). Subsequently plates were incubated for 6 hours in a standard tissue culture incubator and equilibrated at room temperature for 15 minutes. Nanoluciferase activity was measured by adding 15 μL of freshly prepared Nano-Glo Luciferase Assay Reagent (Promega N1130), shaking the plates for 10 minutes and reading the bioluminescence using an EnVision reader.
Results: The Inhibition % was calculated using the following formula: % Inhibition=100×(LumHC−LumSample)/(LumHC−LumLC). DMSO treated cells are employed as High Control (HC) and 1 μM of a known BRD9 degrader standard treated cells are employed as Low Control (LC).

Sequence of Nanoluciferase-BRD9 fusion protein (3×FLAG-NLuc-BRD9) in SYO-1 cells (Q9H8M2 whole entry, the tested form may be a part): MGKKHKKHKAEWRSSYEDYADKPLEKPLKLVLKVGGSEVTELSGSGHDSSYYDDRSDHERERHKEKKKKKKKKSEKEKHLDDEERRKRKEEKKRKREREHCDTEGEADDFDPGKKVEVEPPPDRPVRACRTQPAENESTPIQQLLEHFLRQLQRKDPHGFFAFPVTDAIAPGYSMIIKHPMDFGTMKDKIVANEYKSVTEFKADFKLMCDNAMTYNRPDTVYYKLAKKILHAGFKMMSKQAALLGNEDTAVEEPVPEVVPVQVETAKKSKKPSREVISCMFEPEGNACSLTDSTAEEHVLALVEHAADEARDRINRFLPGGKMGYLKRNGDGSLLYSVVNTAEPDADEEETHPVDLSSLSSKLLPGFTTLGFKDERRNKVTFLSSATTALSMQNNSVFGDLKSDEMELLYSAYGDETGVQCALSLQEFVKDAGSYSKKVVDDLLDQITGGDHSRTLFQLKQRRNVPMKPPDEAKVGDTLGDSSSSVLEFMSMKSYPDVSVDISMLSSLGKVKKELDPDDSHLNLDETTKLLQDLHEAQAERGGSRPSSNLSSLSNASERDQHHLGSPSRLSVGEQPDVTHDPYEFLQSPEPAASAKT

CNC(=O)N1CCc2c(-c3cc(OC)c(CN4CCN(CCC5CCN(c6ccc7c(c6)C(=O)N(C6CCC(=O)NC6=O)C7=O)CC5)CC4C(F)F)c(OC)c3)cn(C)c(=O)c2C1 (centres unmarked) [Compound D104] and CNC(=O)N1CCc2c(-c3cc(OC)c(CN4CCN(CCC5CCN(c6ccc7c(c6)C(=O)N(C6CCC(=O)NC6=O)C7=O)CC5)CC4C)c(OC)c3)cn(C)c(=O)c2C1 (centres unmarked) [Compound D99] cannot be ordered by IC50: less than 10 nM for the first, less than 10 nM for the second.

Compared with COc1cc(-c2cn(C)c(=O)c3c2CCN(C(=O)NCC2CC24CCN(CCOc2ccc5c(c2)C(=O)N(C2CCC(=O)NC2=O)C5=O)CC4)C3)cc(OC)c1CN(C)C (centres unmarked) [Compound D269], COc1cc(-c2cn(C)c(=O)c3c2CCN(C(=O)NCC2CC4(CCN(CCCOc5ccc6c(c5)C(=O)N(C5CCC(=O)NC5=O)C6=O)CC4)C2)C3)cc(OC)c1CN(C)C (centres unmarked) [Compound D235] is higher in IC50: 10 to 100 nM for the first, 100 to 1000 nM for the second.

COc1cc(-c2cn(C)c(=O)c3c2CCN(C(=O)NC2CCC4CN(CCCCN5CCN(c6ccc7c(c6)C(=O)N(C6CCC(=O)NC6=O)C7=O)CC5)CC42)C3)cc(OC)c1CN(C)C (centres unmarked) [Compound D221] and COc1cc(-c2cn(C)c(=O)c3c2CCN(C(=O)NC2CC4(C2)CN(CCCCN2CCN(c5ccc6c(c5)C(=O)N(C5CCC(=O)NC5=O)C6=O)CC2)C4)C3)cc(OC)c1CN(C)C (centres unmarked) [Compound D230] cannot be ordered by IC50: 100 to 1000 nM for the first, no less than 1000 nM for the second.

COc1cc(-c2cn(C)c(=O)c3c2CCN(C(=O)CC2CCC24CCN(CCCCN2CCN(c5ccc6c(c5)C(=O)N(C5CCC(=O)NC5=O)C6=O)CC2)CC4)C3)cc(OC)c1CN(C)C (centres unmarked) [Compound D220] and COc1cc(-c2cn(C)c(=O)c3c2CCN(C(=O)NC2CC4(CCN(CCCN5CCN(c6ccc7c(c6)C(=O)N(C6CCC(=O)NC6=O)C7=O)CC5)CC4)C2)C3)cc(OC)c1CN(C)C (centres unmarked) [Compound D216] cannot be ordered by IC50: 100 to 1000 nM for the first, no less than 1000 nM for the second.

CNC(=O)N1CCc2c(-c3cc(OC)c(CN4CCC(CCN5CC6(C5)CN(c5ccc7c(c5)C(=O)N(C5CCC(=O)NC5=O)C7=O)C6)CC4)c(OC)c3)cn(C)c(=O)c2C1 (centres unmarked) [Compound D199] and CNC(=O)N1CCc2c(-c3cc(OC)c(CN4CCC(CN5CCN(c6ccc7c(c6)C(=O)N(C6CCC(=O)NC6=O)C7=O)CC5)CC4)c(OC)c3)cn(C)c(=O)c2C1 (centres unmarked) [Compound D256] cannot be ordered by IC50: less than 10 nM for the first, less than 10 nM for the second.

CNC(=S)N1CCc2c(-c3cc(OC)c(CN4CCC(CCN5CCN(c6ccc7c(c6)C(=O)N(C6CCC(=O)NC6=O)C7=O)CC5)CC4)c(OC)c3)cn(C)c(=O)c2C1 (centres unmarked) [Compound D63] and CNC(=O)N1CCc2c(-c3cc(OC)c(CN4CCC(CCN5CCN(c6cc7c(cc6F)C(=O)N(C6CCC(=O)NC6=O)C7=O)CC5)CC4)c(OC)c3)cn(C)c(=O)c2C1 (centres unmarked) [Compound D88] cannot be ordered by IC50: less than 10 nM for the first, less than 10 nM for the second.

First: COc1cc(-c2cn(C)c(=O)c3c2CCN(C(=O)NCCCN2CCC4C(C2)CN4c2ccc4c(c2)C(=O)N(C2CCC(=O)NC2=O)C4=O)C3)cc(OC)c1CN(C)C (centres unmarked) [Compound D231]
Second: COc1cc(-c2cn(C)c(=O)c3c2CCN(C(=O)NCCCN2CCC4(C2)CN(c2ccc5c(c2)C(=O)N(C2CCC(=O)NC2=O)C5=O)C4)C3)cc(OC)c1CN(C)C (centres unmarked) [Compound D207]
The IC50 of the first is lower: less than 10 nM for the first, 10 to 100 nM for the second.

CNC(=O)N1CCc2c(-c3cc(OC)c(CN4CCN(CCN5CCC(c6ccc7c(c6)C(=O)N(C6CCC(=O)NC6=O)C7=O)CC5)CC4)c(OC)c3)cn(C)c(=O)c2C1 (centres unmarked) [Compound D117] and CNC(=O)N1CCc2c(-c3cc(OC)c(CN4CCOC(CCN5CCN(c6ccc7c(c6)C(=O)N(C6CCC(=O)NC6=O)C7=O)CC5)C4)c(OC)c3)cn(C)c(=O)c2C1 (centres unmarked) [Compound D152] cannot be ordered by IC50: less than 10 nM for the first, less than 10 nM for the second.

First: COc1cc(-c2cn(C)c(=O)c3c2CCN(C(=O)NCC2CCC4(CCN(c5ccc6c(c5)C(=O)N(C5CCC(=O)NC5=O)C6=O)CC4)O2)C3)cc(OC)c1CN(C)C (centres unmarked) [Compound D120]
Second: CNC(=O)N1CCc2c(-c3cc(OC)c(CN4CCN(c5ccc6c(c5)C(=O)N(C5CCC(=O)NC5=O)C6=O)CC4)c(OC)c3)cn(C)c(=O)c2C1 (centres unmarked) [Compound D131]
The IC50 of the first is higher: 100 to 1000 nM for the first, less than 10 nM for the second. The second is the more potent here.

CNC(=O)N1CCc2c(-c3cc(OC)c(CN4CCC(C#Cc5ccc6c(c5)C(=O)N(C5CCC(=O)NC5=O)C6=O)CC4)c(OC)c3)cn(C)c(=O)c2C1 (centres unmarked) [Compound D143] and CNC(=O)N1CCc2c(-c3cc(OC)c(CN4CCC5(CC4)CC(Oc4ccc6c(c4)C(=O)N(C4CCC(=O)NC4=O)C6=O)C5)c(OC)c3)cn(C)c(=O)c2C1 (centres unmarked) [Compound D183] cannot be ordered by IC50: less than 10 nM for the first, less than 10 nM for the second.

CNC(=O)N1CCc2c(-c3cc(OC)c(CN4CC5CC4CC5CCN4CCN(c5ccc6c(c5)C(=O)N(C5CCC(=O)NC5=O)C6=O)CC4)c(OC)c3)cn(C)c(=O)c2C1 (centres unmarked) [Compound D138] and CNC(=O)N1CCc2c(-c3cc(OC)c(CN4[C@H](C)CN(CCC5CCN(c6ccc7c(c6)C(=O)N(C6CCC(=O)NC6=O)C7=O)CC5)C[C@@H]4C)c(OC)c3)cn(C)c(=O)c2C1 (some centres unmarked) [Compound D141] cannot be ordered by IC50: less than 10 nM for the first, less than 10 nM for the second.

CNC(=O)N1CCc2c(-c3cc(OC)c(CN4CCC(CCN5CCN(c6cc7c(c(F)c6F)CN(C6CCC(=O)NC6=O)C7=O)CC5)CC4)c(OC)c3)cn(C)c(=O)c2C1 (centres unmarked) [Compound D75] and CNC(=O)N1CCc2c(-c3cc(OC)c(CN4CCC(CCN5CCN(c6ccn7c(=O)n(C8CCC(=O)NC8=O)nc7c6)CC5)CC4)c(OC)c3)cn(C)c(=O)c2C1 (centres unmarked) [Compound D77] fall in the same range of IC50: 10 to 100 nM for the first, 10 to 100 nM for the second.

COc1cc(-c2cn(C)c(=O)c3c2CCN(C(=O)NC2C[C@@H]4CN(CCCOc5ccc6c(c5)C(=O)N(C5CCC(=O)NC5=O)C6=O)C[C@H]24)C3)cc(OC)c1CN(C)C (some centres unmarked) [Compound D248] and COc1cc(-c2cn(C)c(=O)c3c2CCN(C(=O)NC2CC4(CCN(CCCOc5ccc6c(c5)C(=O)N(C5CCC(=O)NC5=O)C6=O)CC4)C2)C3)cc(OC)c1CN(C)C (centres unmarked) [Compound D252] cannot be ordered by IC50: no less than 1000 nM for the first, 100 to 1000 nM for the second.

First: CNC(=O)N1CCc2c(-c3cc(OC)c(CN4CC(CN5CC6(CCN(c7ccc8c(c7)C(=O)N(C7CCC(=O)NC7=O)C8=O)C6)C5)C4)c(OC)c3)cn(C)c(=O)c2C1 (centres unmarked) [Compound D167]
Second: CNC(=O)N1CCc2c(-c3cc(OC)c(CN4CC(S(=O)(=O)NCCCOc5ccc6c(c5)C(=O)N(C5CCC(=O)NC5=O)C6=O)C4)c(OC)c3)cn(C)c(=O)c2C1 (centres unmarked) [Compound D277]
The IC50 of the first is lower: 10 to 100 nM for the first, 100 to 1000 nM for the second. The first is the more potent here.

Compared with CNC(=O)N1CCc2c(-c3cc(OC)c(CN(C)CC45CC(C(=O)NCCCCCOc6cccc7c6C(=O)N(C6CCC(=O)NC6=O)C7=O)(C4)C5)c(OC)c3)cn(C)c(=O)c2C1 (centres unmarked) [Compound D288], CNC(=O)N1CCc2c(-c3cc(OC)c(CN4CCN(CCC5CCN(c6c(F)c(F)c7c(c6F)C(=O)N(c6ccc(F)cc6F)C7=O)CC5)CC4)c(OC)c3)cn(C)c(=O)c2C1 [DD1] is lower in IC50: 100 to 1000 nM for the first, less than 10 nM for the second.

Work on COc1cc(-c2cn(C)c(=O)c3c2OCCN3)cc(OC)c1CN1CC(CN2CCC3(CC2)CN(c2ccc4c(c2)C(=O)N(C2CCC(=O)NC2=O)C4)C3)C1 (centres unmarked) [Compound D66] yielded an IC50 of less than 10 nM.

Same assay, conditions: SYO-1 cells, 6 hours, Table 6A

CNC(=O)N1CCc2c(-c3cc(OC)c(CN4CC(NC(=O)CCCCCOc5cccc6c5C(=O)N(C5CCC(=O)NC5=O)C6=O)C4)c(OC)c3)cn(C)c(=O)c2C1 (centres unmarked) [Compound D16, 5-(4-[[3-(6-[[2-(2,6-dioxopiperidin-3-yl)-1,3-dioxoisoindol-4-yl]oxy]hexanamido)azetidin-1-yl]methyl]-3,5-dimethoxyphenyl)-N,7-dimethyl-8-oxo-3,4-dihydro-1H-2,7-naphthyridine-2-carboxamide formic acid] and COc1cc(-c2cn(C)c(=O)c3c2CCN(C(=O)NCCOCCOCCNc2cccc4c2CN(C2CCC(=O)NC2=O)C4=O)C3)cc(OC)c1CN(C)C (centres unmarked) [Compound D5, 5-[4-[(dimethylamino)methyl]-3,5-dimethoxyphenyl]-N-[2-[2-(2-[[2-(2,6-dioxopiperidin-3-yl)-1-oxo-3H-isoindol-4-yl]amino]ethoxy)ethoxy]ethyl]-7-methyl-8-oxo-3,4-dihydro-1H-2,7-naphthyridine-2-carboxamide formic acid] cannot be ordered by IC50: greater than 10 nM for the first, greater than 1000 nM for the second.

Same assay, conditions: SYO-1 cells, 6 hours, Table 6C

Going from COc1cc(-c2cn(C)c(=O)c3c2CCC3)cc(OC)c1CN1CCN(CCC2CCN(c3ccc4c(c3)C(=O)N(C3CCC(=O)NC3=O)C4)CC2)CC1 (centres unmarked) [Compound D348] to CNC(=O)N1CCc2c(-c3cc(OC)c(CN4CCN(CCC5CCN(c6ccc7c(c6)C(=O)N(C6CCC(=O)N(C)C6=O)C7)CC5)CC4)c(OC)c3)cn(C)c(=O)c2C1 (centres unmarked) [Compound D305], the IC50 rises from less than 10 nM to no less than 1000 nM. The first is the more potent here.

CNC(=O)N1CCc2c(-c3cc(OC)c(CN4CCN(CCC5CCN(c6ccc7c(c6)CN(C6CCC(=O)NC6=O)C7=O)CC5)CC4COC)c(OC)c3)cn(C)c(=O)c2C1 (centres unmarked) [Compound D329] and CNC(=O)N1CCc2c(-c3cc(OC)c(CN4CCN(CCC5CCN(c6ccc7c(c6)C(=O)N(C6CCC(=O)NC6=O)C7)CC5)CC45CC5)c(OC)c3)cn(C)c(=O)c2C1 (centres unmarked) [Compound D314] cannot be ordered by IC50: less than 10 nM for the first, less than 10 nM for the second.

First: COc1cc(-c2cn(C)c(=O)c3c2CCN(C(=O)NCC(F)F)C3)cc(OC)c1CN1CCN(CCC2CCN(c3ccc4c(c3)C(=O)N(C3CCC(=O)NC3=O)C4)CC2)CC1(C)C (centres unmarked) [Compound D313]
Second: [2H]C([2H])([2H])NC(=O)N1CCc2c(-c3cc(OC)c(CN4[C@H](C)CN(CCC5CCN(c6ccc7c(c6)CN(C6CCC(=O)NC6=O)C7=O)CC5)C[C@H]4C)c(OC)c3)cn(C)c(=O)c2C1 (some centres unmarked) [Compound D324]
The IC50 of the first is higher: no less than 1000 nM for the first, less than 10 nM for the second.

COc1cc(-c2cn(C)c(=O)c3c2CCCN3)cc(OC)c1CN1CCC2(CC1)CN(c1ccc3c(c1)C(=O)N(C1CCC(=O)NC1=O)C3)C2 (centres unmarked) [Compound D361] and CNC(=O)N1CCc2c(-c3cc(OC)c(C4CN(c5ccc6c(c5)C(=O)N(C5CCC(=O)NC5=O)C6=O)C4)c(OC)c3)cn(C)c(=O)c2C1 (centres unmarked) [Compound D303] cannot be ordered by IC50: less than 10 nM for the first, less than 10 nM for the second.
